Data: patent publication US10561638B2, “Methods for treating dependence” (Biotie Therapies, Inc., priority 2007, dated 2020)

Legend:
[1] = test system: brain dopamine/norepinephrine ratio; experiment: Dopamine/norepinephrine ratios in the brain of rodents; conditions: in vivo
Procedure: Dopamine/norepinephrine ratios in the brain of rodents treated with nepicastat were determined. Dopamine/norepinephrine ratios increased in the brains of rodents treated with nepicastat or disulfuram.

[2] = cited from earlier work
[3] = in vivo; cited from earlier work
CD-1 (ICR) mice = experiment: Locomotor activity in mice, intraperitoneal; format: in vivo; conditions: i.p.; nepicastat 3-100, SKF-102698 30 and 100, cocaine 30 mg/kg
Excerpt: Adult male CD-1 (ICR) mice (30-40 g on study day) were housed in groups of eight under a normal light/dark cycle with lights on between 0900 hr and 2100 hr. Food and water were allowed ad libitum. All animals were naive to drug treatment and behavioral testing. Each animal was only used once.
Locomotor activity was monitored in an automated 14 station activity monitoring system (San Diego Instrument Co.). Each station consisted of a clear perspex cage (25 cm×45 cm×20 cm; w×1×h) placed within a metal frame containing 3 photoemmitors and 3 photodetectors spaced equally along the length of the wall. The bottom of each cage was lightly covered in clean cedar bedding.
The mice were placed in the testing room at least 1 hr prior to testing. The mice were placed individually into one of the activity cages and allowed to explore for 30 min. […] Following a 60 minute pre-treatment period, motor activity was monitored for 180 minutes. Activity counts and ambulations (defined as a break of 2 consecutive photobeams) for each animal were recorded every 30 minutes.
A repeated measures two-way analysis of variance (ANOVA) was performed using the overall ranked data (nonparametric technique) to test for the overall effects of treatment, time interval and treatment by time interval interaction. […]

[4] = test system: spontaneous hypertensive rats; experiment: SCH-23390 pretreatment study in restrained SHRs; format: in vivo; conditions: SCH-23390 iv, post-iv period
Excerpt: Male, spontaneous hypertensive rats (280-345 g; Charles River Labs, Kingston, N.Y.) were fasted overnight then anesthetized with ether. A femoral artery and femoral vein were cannulated with PE50 tubing for recording of blood pressure and administration of compounds, respectively. Animals were then placed in MAYO restrainers and their feet loosely taped to the restrainer. Heparinized saline (50 units sodium heparin/ml) was used to maintain patency of each cannula throughout the experiment. The following parameters were continuously recorded using Modular Instruments MI^2 BioReport™ software installed on an IBM personal computer: mean arterial pressure (MAP), heart rate (HR), and the change from baseline for each parameter at specified time points in the experiment.
All compounds were dissolved on the day of use. Nepicastat was dissolved in deionized water (vehicle) to a free base concentration of 1 mg/ml. Oral dosing volume for nepicastat or vehicle was 10 ml/kg. SCH-23390 was dissolved in saline (vehicle) to a free base concentration of 0.2 mg/ml. […] or saline were administered intravenously as a bolus in a volume of 1.0 ml/kg followed by 0.2 ml flush of isotonic saline.
Following surgical preparation, each animal was allowed a minimum one hour recovery period. Animals were randomly assigned to four treatment groups: vehicle (iv)/vehicle (po); vehicle (iv)/nepicastat (po); SCH-23390 (iv)/vehicle (po); or SCH-23390 (iv)/nepicastat (po). Once animals were stabilized (minimum one hour), baseline blood pressure and heart rate was determined by taking an average of each parameter over a 15 min period of time. Once baseline blood pressure and heart rate were established, animals were dosed intravenously with either SCH-23390 (200 μg/kg) or vehicle (saline, 1 ml/kg). Fifteen minutes later, animals were orally dosed with either nepicastat (10 mg/kg) or vehicle (deionized water, 10 ml/kg).
Recorded parameters were measured 15 min prior to intravenous dosing to establish baseline blood pressure and heart rate. Recorded parameters were then measured at 5, 10, and 15 min following intravenous administration of SCH-23390 or vehicle. Following oral administration of nepicastat or vehicle, recorded parameters were measured at 15, 30, 60, 90, 120, 150, 180, 210, and 240 min.
At the end of the experiment, each animal was anesthetized with halothane and euthanized via decapitation. The cortex, left ventricle (apex), and mesenteric artery were dissected out, weighed, and fixed in 0.4 M perchloric acid. Tissues were then frozen in liquid nitrogen and stored at −70° C. Biochemical analysis are performed on these tissues at a later date to determine catecholamine levels including dopamine and norepinephrine levels. Blood pressure and heart rate were analyzed separately. The change from baseline for blood pressure and heart rate were analyzed by an analysis of variance (ANOVA) with effects for treatment, time, and their interaction. This analysis was performed both for the post-iv time period and for the post-oral time period. Further analyses were performed at each time by an ANOVA with a main effect for […]. Pairwise comparisons were performed following each ANOVA by Fisher's LSD strategy with a Bonferroni correction when the overall treatment effect was not significant.
An additional analysis was performed to compare the baseline means of each treatment group by an ANOVA with a main effect for treatment and subsequent pairwise comparisons. […]

normotensive Wistar rats = experiment: 7 day radio-telemetry study in normotensive Wistar rats; conditions: hydralazine 10 mg/kg
Procedure: Male Crl:COBS(WI)BR rats of 15 weeks old were used.
Both nepicastat and hydralazine were prepared in water with traces of Tween 80. All doses were given orally to the rat in 10 ml/kg and were expressed as free base equivalents.
All values were expressed as means±SEM. Statistical significance was defined as a p level of less than 0.05.
Body weights were recorded daily.

Sprague Dawley rats = experiment: Locomotor activity and acoustic startle reactivity in rats, acute; format: in vivo; conditions: nepicastat 3-100 mg/kg, SKF-102698 100 mg/kg, clonidine 40 μg/kg
Excerpt: Rats were housed under a normal light/dark cycle with lights on between 0900 Hrs. and 2100 Hrs. Animals were housed in pairs in standard metal wire cages, and food and water were allowed ad libitum. The locomotor activity boxes consisted of a Plexiglas box measuring 18''×18'' by 12'' high. Surrounding the Plexiglas® boxes were Omnitech Digiscan Monitors (model # RXXCM 16) which consisted of a one inch ban of photobeams and photosensors numbering 32 per box. The number of photobeam breaks were analyzed by an Omnitech Digiscan Analyzer (model # DCM-8). […] A piezoelectric accelerometer transforms the subject's movement into an arbitrary voltage on a scale of 0 to 4095. […] The average startle was calculated for each rat by taking the mean of startle number 11 through 45 (the first ten startles will be disregarded). Sixty-four of these rats were then placed in one of eight treatment groups such that each group had similar mean startle values. The eight treatment groups were as follows: […] […] The rats motor activity was monitored for four hours. […] To evaluate motor activity, horizontal activity (number of photobeams broken), number of movements, and rest time were measured. Each parameter was analyzed separately. […] The startle responses were analyzed using analysis of covariance. […] Therefore, the startle responses were analyzed by time. […]

rats = experiment: Chronic (10 day) dosing behavioral tests in rats; conditions: rat, in vivo
Procedure: The effects of chronic dosing of nepicastat in rats were examined. Between three and thirteen days prior to the first dosing day the rats were placed inside the startle apparatus and after a five minute acclimation period they were presented with a 118 dB noise burst on average once a minute (a variable inter-trial interval ranging between 30 and 90 seconds will be used) for 20 minutes. The startle responses were measured and a mean for the last twenty startle response was calculated for each rat.
The following behavioral tests were administered during and after chronic dosing; body core temperature, motor activity, acoustic startle reactivity, and pre-pulse inhibition of acoustic startle.
The animals were tested in an enclosed room with a white noise generator running Motor activity tests were conducted immediately after the body core temperature reading taken on dosing day ten (about 3 hours and 35 minutes after the morning daily dose of nepicastat, and SKF-102698, and 20 minutes prior to the daily administration of clonidine and d-amphetamine on dosing day ten). Motor activity tests were run for one hour. A diagnostic program was run on each of the motor activity chambers prior to each test session to assure that the photo beams and light sensors were operating properly. […] D-amphetamine was used as the positive control for this assay.
Rat body core temperatures were obtained by inserting the rectal probe 2 cm into the colon of each rat. Each rat's body core temperature was measured three times and the average of the three reading was calculated. Body core temperature readings were obtained immediately prior to the ten day chronic dosing schedule (to obtain a baseline), and three and half hour after the morning daily dose of nepicastat, and SKF-102698, and 15 minutes prior to the daily administration of clonidine and d-amphetamine, on dosing days one, five and ten. […] Both clonidine (an alpha2 agonist), and d-amphetamine (a dopamine releaser) were used as the positive controls for this assay.
Acoustic startle reactivity (a series of muscle contractions elicited by an intense burst of noise with a rapid onset), and pre-pulse inhibition (sensorimotor gating measured by analyzing any decrease in startle reactivity which occurs when a startling stimulus is immediately preceded by a non startling stimulus) were both measured in eight SR-Lab (San Diego Instruments, San Diego, Calif.) test stations. The rats were placed individually in a Plexiglas cylinder (10 cm diameter) which was housed in a ventilated sound-attenuating enclosure. Acoustic noise bursts (a broad band noise with a rise time and fall time of 1 msec) were presented via a speaker mounted 30 cm above the animal. Also, these speakers produced a 68 dB level of background noise throughout all test sessions. A piezoelectric accelerometer attached below the plexiglass cylinder transduced the subject's movement into a voltage which was then rectified and digitized (on a scale from 0 to 4095) by a PC computer equipped with SR-Lab software and interface assembly. A decibel meter was used to calibrate the speakers in each of the eight test station to ±1% of the mean. Additionally, a SR-Lab calibrating instrument was used to calibrate each of the eight startle detection apparatuses to ±2% of the mean. Startle reactivity and pre-pulse inhibition tests were run concurrently immediately alter the motor activity test (about 4 hours and 40 minutes after the morning daily injection of nepicastat, and SKF-102698, and 10 minutes after a supplemental administration of clonidine and d-amphetamine on dosing day ten).

Q: Which “dopamine/norepinephrine ratios in the brain” value [1] does the source give for `CCN(CC)C(=S)SSC(=S)N(CC)CC` [disulfuram] here?
A: Its value is “increased”.

Q: And the “cocaine use vs placebo” value ([2]; disulfuram 250 mg per day)?
A: The value was “reduced cocaine use compared to placebo”.

Q: And the “elevations in plasma cocaine levels” value ([2]; intranasal cocaine during disulfuram treatment, one controlled study)?
A: The value was “Six-fold elevations”.

Q: For `COC(=O)[C@H]1[C@@H](OC(=O)c2ccccc2)C[C@@H]2CC[C@H]1N2C.Cl` [cocaine, cocaine hydrochloride], which elimination half-life [3] is on record?
A: Its elimination half-life is “about 90 min”.

Q: And the “total activity counts and ambulations vs vehicle” value (CD-1 (ICR) mice)?
A: Its value is “significantly greater total activity counts”.

Q: For `CN1CCc2cc(Cl)c(O)cc2[C@@H](c2ccccc2)C1` [SCH-23390, reference compound], which “decrease in mean arterial pressure” value [4] is on record?
A: The value was 5±1 mmHg.

Q: For `NNc1nncc2ccccc12` [hydralazine], which heart rate (normotensive Wistar rats) is on record?
A: The heart rate was “varying degrees of tachycardia”.

Q: And the “time in which the hypotensive effect subsided” value (normotensive Wistar rats)?
A: Its value is 10 h.

Q: What about the “maximal decrease in MBP” value (normotensive Wistar rats; within 1 hr after dosing on day 1) of the same compound?
A: The value was −24 mmHg.

Q: With `Clc1cccc(Cl)c1N=C1NCCN1` [clonidine] as the compound, how does the “locomotor activity (horizontal activity, movements, rest time) vs vehicle” value (Sprague Dawley rats) read?
A: Its value is “significantly more horizontal activities at 2 and 2.5 hours”.

Q: And the “maximum and average acoustic startle response vs vehicle” value (Sprague Dawley rats)?
A: Its value is “statistically significantly lower maximum and average startle responses”.

Q: What about the body core temperature (rats) of the same compound?
A: The body core temperature was “significantly increasing body core temperature on day one”.

Q: What about the pre-pulse inhibition (rats) of the same compound?
A: Its pre-pulse inhibition is “just significantly higher percent prepulse inhibition”.
